# In paper PMC7324608 (Scientific Reports, 2020):
# Where two headings read alike, the source gives them in different places.
# Key:
# HpHtrA [1] = molecular target: T1, HpHtrA (Helicobacter pylori, UniProt G2J5T2); assay: in vitro E-cadherin (hCdh1) cleavage by HpHtrA (Western blot); type: biochemical; conditions: 50 ng hCdh1, 250 ng HpHtrA, 16 h, 37 °C; for effect on HpHtrA-mediated hCdh1 cleavage/fragmentation: 1 mM
# T1 construct: (HpHtrA, G18-K475, UniProt G2J5T2); GST (N, cleaved yes); made in house; host or cells: E. coli BL21
# T1 sequence (G2J5T2 18-475): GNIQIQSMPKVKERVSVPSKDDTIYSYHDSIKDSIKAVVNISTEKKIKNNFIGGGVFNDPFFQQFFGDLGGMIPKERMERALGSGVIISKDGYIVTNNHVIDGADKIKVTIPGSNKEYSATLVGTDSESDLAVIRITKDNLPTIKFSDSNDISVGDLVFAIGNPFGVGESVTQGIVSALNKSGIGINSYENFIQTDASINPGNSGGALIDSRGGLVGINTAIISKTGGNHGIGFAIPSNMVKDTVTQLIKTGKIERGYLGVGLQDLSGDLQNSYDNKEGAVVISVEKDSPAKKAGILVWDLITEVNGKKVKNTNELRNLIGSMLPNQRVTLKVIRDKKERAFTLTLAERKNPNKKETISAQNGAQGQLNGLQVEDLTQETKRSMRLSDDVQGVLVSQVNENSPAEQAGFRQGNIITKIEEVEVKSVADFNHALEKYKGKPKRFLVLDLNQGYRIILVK
# From the text: (§1) The proteins were separated by SDS-PAGE and visualized by staining with Coomassie Brilliant Blue G250 (Lactan, Vienna, Austria). […] Proteins were separated using SDS-PAGE and blotted onto a nitrocellulose membrane. Human Cdh1 was detected by an antibody recognizing the EC5 domain of hCdh1 (Abcam, Cambridge, UK) and a polyclonal serum was used to detect HpHtrA[22]. Independent experiments were repeated at least three times.
# HpHtrA wt = molecular target: T2, HpHtrA wt (Helicobacter pylori, UniProt G2J5T2); assay: HpHtrA oligomerization, non-reducing SDS-PAGE; set-up: (HpHtrA, G18-K475, UniProt G2J5T2); GST (N, cleaved yes); made in house; host or cells: E. coli BL21
# T2 sequence (G2J5T2 18-475): T1 sequence (G2J5T2 18-475)
# Procedure: Non-reducing sample buffer without β-mercaptoethanol was added and the samples were separated by SDS-PAGE containing 0.1% casein (Carl Roth, Karlsruhe, Germany) as a substrate. The gel was incubated for 60 min in renaturing buffer (2.5% Triton X-100) and equilibrated for 30 min in developing buffer (50 mM Tris–HCl, pH 7.4, 200 mM NaCl, 5 mM CaCl2, and 0.02% Brij-35) at room temperature under gentle agitation. Afterwards, the gel was incubated for 24 h at 37 °C in developing buffer under gentle agitation. To visualize caseinolytic activity, the gel was stained in 0.5% Coomassie Brilliant Blue R250 (Carl Roth, Karlsruhe, Germany). For detection of multimers by SDS-PAGE, HpHtrA was separated by SDS-PAGE under non-reducing conditions. Proteins were visualized by staining with Coomassie Brilliant Blue G250. Independent experiments were repeated at least four times.
# BbHtrA = tested on: BbHtrA; set-up: method as in PMID 26480895; conditions: cited from earlier work
# HpHtrA [2] = molecular target: T1, HpHtrA; assay: FRET peptide assay of HpHtrA activity; type: biochemical; conditions: 5 µM FRET peptide, 250 nM HpHtrA, 37 °C, 50 mM HEPES pH 7.4, read-out: IC50 of HpHtrA inhibition
# From the text: For the establishment of a FRET-based assay for the quantification of the HpHtrA activity, the 2-Abz/3-nitrotyrosine FRET pair[53]–[55] was introduced into the sequence AQRVAF: the fluorophore (2-Abz, Ex/Em 320/435 nm) was coupled at the N-terminus, whereas the quencher (3-nitrotyrosine, Ex 425 nm[56]) was positioned at the C-end. The FRET activity of this peptide was first confirmed by measuring the fluorescence emission in the range 400–450 nm before and after the trypsin-mediated cleavage of the peptide bond R_V (Fig. S3). The measurements were performed in a black, flat-bottom 96-well plate (Nunc, Thermo Scientific, Schwerte, Germany) at 37 °C. 5 µM of the peptide were incubated with 250 nM HpHtrA and 125 nM trypsin in 50 mM HEPES buffer (pH 7.4). […] Cleavage of the peptide leads to increasing fluorescence, which was measured in a plate reader (Infinite 200 PRO, TECAN, Groedig, Austria) with a filter setting of 320 nm/425 nm (Ex/Em). Statistical analysis was performed with GraphPad Prism software (Vers. 8.0.2). […] Three independent experiments containing three technical replicates were analyzed for every sample. Significance is indicated as non-significant (ns) for p > 0.05, * for p < 0.05, ** for p < 0.01, *** for p < 0.001, and **** for p < 0.0001.
# HpHtrA [3] = molecular target: T1, HpHtrA; assay: in vitro casein cleavage by HpHtrA (Coomassie SDS-PAGE); type: biochemical; conditions: 10 µg casein, 250 ng HpHtrA, 16 h, 37 °C; for effect on HtrA-mediated casein degradation: 1 mM
# From the text: as §1
SMILES,effect on HpHtrA-mediated hCdh1 cleavage/fragmentation (HpHtrA [1]),"stabilization of HpHtrA wt oligomers (HpHtrA wt; low concentrations, Coomassie-stained SDS-PAGE, non-reducing)",effect on casein degradation by BbHtrA (BbHtrA),IC50 (HpHtrA [2]; after 15 min) [nM],IC50 (HpHtrA [2]; after 180 min) [nM],concentration giving a slight inhibitory effect on casein cleavage (HpHtrA [3]) [µM],effect on HtrA-mediated casein degradation (HpHtrA [3]),concentration that clearly inhibited HpHtrA-mediated hCdh1 fragmentation (HpHtrA [1]) [µM],"concentration sufficient to enhance oligomerization or the stability of HpHtrA (HpHtrA wt; Coomassie-stained gel, non-reducing conditions) [µM]",IC100 (HpHtrA [3]; read-out: concentration required to fully inhibit casein cleavage) [µM]
"[Cu+2] [Cu^++, CuCl2]",strongly decreased,only slightly stabilized,similarly inhibited,295,937,250,strongly inhibited,,,
"[Zn+2] [Zn^++, ZnCl2]",strongly decreased,,similarly inhibited,650,2570,250,strongly inhibited,50,50,500 to 1000
